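Abbreviation: GI50, concentration required for 50% inhibition of growth. TGI marks complete inhibition of growth.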
Key:
Experiment in all cases: NCI anticancer screen, dose series, 384-well format
[1] = system: 786-0 renal
[2] = system: A498 renal
[3] = system: A549 NSCLC
[4] = system: ACHN renal
[5] = system: BT-549 breast
[6] = system: COLO 205 colon
[7] = system: DU-145 prostate
[8] = system: EKVX NSCLC
[9] = system: HCC-2998 colon
[10] = system: HCT-15 colon
[11] = system: HL-60(TB) leukemia
[12] = system: HOP-62 NSCLC
[13] = system: HS 578T breast
[14] = system: HT29 colon
[15] = system: K-562 leukemia
[16] = system: KM12 colon
[17] = system: LOX IMVI melanoma
[18] = system: M14 melanoma
[19] = system: MALME-3M melanoma
[20] = system: MCF7 breast
[21] = system: MDA-MB-231 breast
[22] = system: MDA-MB-435 melanoma
[23] = system: MDA-MB-468 breast
[24] = system: MOLT-4 leukemia
[25] = system: NCI-H226 lung
[26] = system: NCI-H23 lung
[27] = system: NCI-H322M lung
[28] = system: NCI-H460 NSCLC
[29] = system: NCI-H522 lung
[30] = system: NCI/ADR-RES ovarian
[31] = system: OVCAR-3 ovarian
[32] = system: OVCAR-4 ovarian
[33] = system: OVCAR-8 ovarian
[34] = system: PC-3 prostate
[35] = system: RPMI-8226 leukemia
[36] = system: RXF 393 renal
[37] = system: SF-268 CNS
[38] = system: SF-295 CNS
[39] = system: SF-539 CNS
[40] = system: SK-MEL-28 melanoma
[41] = system: SK-MEL-5 melanoma
[42] = system: SK-OV-3 ovarian
[43] = system: SN12C renal
[44] = system: SNB-19 CNS
[45] = system: SNB-75 CNS
[46] = system: SR leukemia
[47] = system: SW-620 colon
[48] = system: T-47D breast
[49] = system: TK-10 renal
[50] = system: U251 glioblastoma
[51] = system: UACC-257 melanoma
[52] = system: UACC-62 melanoma
[53] = system: UO-31 renal
[54] = system: CAKI-1 renal
[55] = system: CCRF-CEM leukemia
[56] = system: HCT-116 colon
[57] = system: HOP-92 NSCLC
[58] = system: IGROV1 ovarian
[59] = system: OVCAR-5 ovarian
[60] = system: SK-MEL-2 melanoma

CC(C)c1cc(CNc2nc(Nc3cc(C4CC4)[nH]n3)cc(N3CCN(C)CC3)n2)on1
GI50 [1]: 0.135 µM | TGI [1]: 0.904 µM | GI50 [2]: 0.189 µM | TGI [2]: 12.4 µM | GI50 [3]: 0.0201 µM | TGI [3]: 6.83 µM | GI50 [4]: 0.225 µM | TGI [4]: 13.4 µM | GI50 [5]: 0.0341 µM | TGI [5]: 0.197 µM | GI50 [6]: < 0.01 µM | TGI [6]: 0.0211 µM | GI50 [7]: 0.12 µM | TGI [7]: 0.769 µM | GI50 [8]: 0.0288 µM | TGI [8]: 0.359 µM | GI50 [9]: 0.203 µM | TGI [9]: 1.98 µM | GI50 [10]: 0.246 µM | TGI [10]: 2.93 µM | GI50 [11]: < 0.01 µM | GI50 [12]: 0.0692 µM | TGI [12]: 0.306 µM | GI50 [13]: 0.0423 µM | TGI [13]: 0.204 µM | GI50 [14]: 0.0217 µM | TGI [14]: 1.48 µM | GI50 [15]: < 0.01 µM | TGI [15]: 0.0178 µM | GI50 [16]: < 0.01 µM | TGI [16]: 0.0638 µM | GI50 [17]: 0.0298 µM | TGI [17]: 0.164 µM | GI50 [18]: 0.016 µM | TGI [18]: 1.74 µM | GI50 [19]: 0.0455 µM | TGI [19]: 1.85 µM | GI50 [20]: < 0.01 µM | TGI [20]: 10.9 µM | GI50 [21]: 0.0378 µM | TGI [21]: 1.49 µM | GI50 [22]: 0.209 µM | TGI [22]: 2.42 µM | GI50 [23]: 0.0141 µM | TGI [23]: 0.0426 µM | GI50 [24]: < 0.01 µM | TGI [24]: 0.0169 µM | GI50 [25]: 0.0174 µM | TGI [25]: 0.132 µM | GI50 [26]: 0.0145 µM | TGI [26]: 0.189 µM | GI50 [27]: 0.238 µM | TGI [27]: 1.28 µM | GI50 [28]: < 0.01 µM | TGI [28]: 0.141 µM | GI50 [29]: 0.0149 µM | TGI [29]: 0.598 µM | GI50 [30]: 2.67 µM | TGI [30]: 14.1 µM | GI50 [31]: 0.0316 µM | TGI [31]: 0.4 µM | GI50 [32]: 1.16 µM | TGI [32]: 4.54 µM | GI50 [33]: 0.165 µM | TGI [33]: 1.15 µM | GI50 [34]: 0.0815 µM | TGI [34]: 2.61 µM | GI50 [35]: 0.0196 µM | TGI [35]: 0.188 µM | GI50 [36]: 0.0604 µM | TGI [36]: 0.248 µM | GI50 [37]: 0.0307 µM | TGI [37]: 0.26 µM | GI50 [38]: 0.063 µM | TGI [38]: 1.05 µM | GI50 [39]: 0.0311 µM | TGI [39]: 0.228 µM | GI50 [40]: 0.121 µM | TGI [40]: 1.39 µM | GI50 [41]: 0.258 µM | TGI [41]: 1.73 µM | GI50 [42]: 0.0696 µM | TGI [42]: 12.7 µM | GI50 [43]: 0.0224 µM | TGI [43]: 0.207 µM | GI50 [44]: 0.136 µM | TGI [44]: 11.7 µM | GI50 [45]: 0.0136 µM | TGI [45]: 0.165 µM | GI50 [46]: < 0.01 µM | GI50 [47]: 0.0239 µM | TGI [47]: 1.19 µM | GI50 [48]: 0.267 µM | TGI [48]: 17.3 µM | GI50 [49]: 0.137 µM | TGI [49]: 0.587 µM | GI50 [50]: 0.209 µM | TGI [50]: 10.5 µM | GI50 [51]: 1.23 µM | TGI [51]: 2.73 µM | GI50 [52]: 0.0473 µM | TGI [52]: 1.59 µM | GI50 [53]: 0.221 µM | TGI [53]: 1.27 µM

C[C@@]1(c2ncncc2F)NC(=O)c2cc(-c3cn[nH]c3)ccc21
GI50 [1]: 16 µM | TGI [1]: 35.1 µM | GI50 [2]: 10.9 µM | TGI [2]: > 92 µM | GI50 [3]: 17.3 µM | TGI [3]: > 100 µM | GI50 [4]: 20.9 µM | TGI [4]: 69.8 µM | GI50 [5]: 9.62 µM | TGI [5]: 24.2 µM | GI50 [54]: 20.1 µM | TGI [54]: 63.4 µM | GI50 [55]: 2.74 µM | TGI [55]: 7.58 µM | GI50 [6]: 2.01 µM | TGI [6]: 4.03 µM | GI50 [7]: 16.2 µM | TGI [7]: > 100 µM | GI50 [8]: 16.7 µM | TGI [8]: 42.5 µM | GI50 [9]: 12.6 µM | TGI [9]: 34.3 µM | GI50 [56]: 6.88 µM | TGI [56]: > 100 µM | GI50 [10]: 15.9 µM | TGI [10]: > 83.9 µM | GI50 [11]: 5.53 µM | TGI [11]: 16.7 µM | GI50 [12]: 16 µM | TGI [12]: 50.8 µM | GI50 [57]: 19.4 µM | TGI [57]: 47.5 µM | GI50 [13]: 18.4 µM | TGI [13]: 35.2 µM | GI50 [14]: 5.11 µM | TGI [14]: 25.4 µM | GI50 [58]: 20.5 µM | TGI [58]: 56.1 µM | GI50 [15]: 11.2 µM | TGI [15]: > 100 µM | GI50 [16]: 15.8 µM | TGI [16]: 35.1 µM | GI50 [18]: 5.45 µM | TGI [18]: 22 µM | GI50 [19]: 2.77 µM | TGI [19]: 14.4 µM | GI50 [20]: 26.6 µM | TGI [20]: > 83 µM | GI50 [21]: 14.9 µM | TGI [21]: 33.1 µM | GI50 [22]: 15.7 µM | TGI [22]: 38.3 µM | GI50 [23]: 5.03 µM | TGI [23]: 14.4 µM | GI50 [24]: 13.8 µM | TGI [24]: 27.8 µM | GI50 [25]: 18.4 µM | TGI [25]: 60.7 µM | GI50 [26]: 10.4 µM | TGI [26]: 25.2 µM | GI50 [27]: 22.4 µM | TGI [27]: 58.4 µM | GI50 [28]: 15.5 µM | TGI [28]: 41.6 µM | GI50 [29]: 4.74 µM | TGI [29]: 38.6 µM | GI50 [30]: 62.6 µM | TGI [30]: > 100 µM | GI50 [31]: 22.2 µM | TGI [31]: 52.4 µM | GI50 [32]: 42 µM | TGI [32]: 88.8 µM | GI50 [59]: 16.3 µM | TGI [59]: 50.2 µM | GI50 [33]: 25.8 µM | TGI [33]: 82.6 µM | GI50 [34]: 21.6 µM | TGI [34]: 71.1 µM | GI50 [35]: 24 µM | TGI [35]: 41.3 µM | GI50 [36]: 25.3 µM | TGI [36]: 42.4 µM | GI50 [37]: 13 µM | TGI [37]: 31 µM | GI50 [38]: 28.5 µM | TGI [38]: > 85 µM | GI50 [39]: 12.1 µM | TGI [39]: 29.1 µM | GI50 [60]: 31.8 µM | TGI [60]: 54 µM | GI50 [40]: 11.8 µM | TGI [40]: 27.6 µM | GI50 [41]: 13 µM | TGI [41]: 31 µM | GI50 [42]: 28.9 µM | TGI [42]: > 71.3 µM | GI50 [43]: 17.3 µM | TGI [43]: 49.9 µM | GI50 [44]: 28.8 µM | TGI [44]: > 100 µM | GI50 [45]: 14.1 µM | TGI [45]: 28.4 µM | GI50 [46]: 2.56 µM | TGI [46]: 5.45 µM | GI50 [47]: 2.03 µM | TGI [47]: 5.93 µM | GI50 [48]: 30.9 µM | TGI [48]: 82.1 µM | GI50 [49]: 15.8 µM | TGI [49]: 36 µM | GI50 [50]: 11.1 µM | TGI [50]: 48.4 µM | GI50 [51]: 17.8 µM | TGI [51]: 44.9 µM | GI50 [52]: 12.2 µM | TGI [52]: 28.8 µM
